Results from ChEMBL document CHEMBL1201862, “PubChem BioAssay data set” (2004).
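In this assay, cells in 96-well plates receive the compound at five concentrations for 48 hours. Endpoints are linearly interpolated between the surrounding concentrations. At the GI50, growth is halved.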 The source made the active and inactive calls. Cut-off read from the data, not from the text of the source: active = GI50 up to about 1.1 µM and inactive = higher.

Key:
Assay in all cases: inhibition of tumour cell growth, NCI panel, 48 h
KM-20L2 = system: KM-20L2
NCI-H460 = system: NCI-H460
SF-295 = system: SF-295
SW-620 = system: SW-620
NCI-H23 = system: NCI-H23
HCC 2998 = system: HCC 2998
TK-10 = system: TK-10
LXFL 529 = system: LXFL 529
HOP-62 = system: HOP-62
SNB-19 = system: SNB-19
SF-268 = system: SF-268
UACC-62 = system: UACC-62
OVCAR-3 = system: OVCAR-3
HL-60 = system: HL-60
A549 = system: A549
OVCAR-8 = system: OVCAR-8
OVCAR-5 = system: OVCAR-5

Measured: GI50

Cc1cc(=O)oc2cc(OCCCOc3ccc4c(C)cc(=O)oc4c3)ccc12
inactive: KM-20L2 > 100 µM | NCI-H460 > 100 µM | SF-295 > 100 µM | SW-620 > 100 µM | NCI-H23 > 100 µM | HCC 2998 > 100 µM | TK-10 > 100 µM | LXFL 529 > 100 µM | HOP-62 63.8 µM | SNB-19 57.9 µM | SF-268 > 100 µM | UACC-62 > 100 µM | OVCAR-3 > 100 µM | HL-60 > 100 µM | A549 > 100 µM | OVCAR-8 > 100 µM

O=C(CCn1[nH]c(=O)c(Cl)c(Cl)c1=O)NNC(=O)C[n+]1ccccc1
inactive: KM-20L2 > 100 µM | NCI-H460 > 100 µM | SF-295 > 100 µM | SW-620 > 100 µM | NCI-H23 > 100 µM | HCC 2998 > 100 µM | OVCAR-5 > 100 µM | TK-10 > 100 µM | LXFL 529 > 100 µM | HOP-62 > 100 µM | SNB-19 > 100 µM | SF-268 > 100 µM | UACC-62 > 100 µM | OVCAR-3 > 100 µM | HL-60 > 100 µM | A549 > 100 µM | OVCAR-8 > 100 µM

CN(C)CCNC(=O)Cc1ccccc1Nc1c(Cl)cccc1Cl
inactive: KM-20L2 4.31 µM | NCI-H460 10 µM | SF-295 16 µM | SW-620 18.2 µM | NCI-H23 18.4 µM | HCC 2998 11.5 µM | OVCAR-5 11.7 µM | TK-10 13.7 µM | LXFL 529 17.7 µM | HOP-62 15 µM | SNB-19 17.2 µM | SF-268 18.2 µM | UACC-62 18.3 µM | OVCAR-3 17.2 µM | HL-60 14.7 µM | A549 18 µM | OVCAR-8 18.9 µM

COC(=O)c1c[nH]cc1CCc1c[nH]cc1C(=O)OC
inactive: KM-20L2 > 100 µM | NCI-H460 > 100 µM | SF-295 > 100 µM | SW-620 > 100 µM | NCI-H23 > 100 µM | HCC 2998 > 100 µM | OVCAR-5 > 100 µM | TK-10 > 100 µM | LXFL 529 > 100 µM | HOP-62 > 100 µM | SNB-19 > 100 µM | SF-268 > 100 µM | OVCAR-3 > 100 µM | HL-60 > 100 µM | A549 > 100 µM | OVCAR-8 > 100 µM

COC(=O)c1c(-c2cc(OC)c(OC)c(OC)c2)oc2ccccc2c1=O
inactive: KM-20L2 > 100 µM | NCI-H460 76.7 µM | SF-295 > 100 µM | SW-620 > 100 µM | NCI-H23 > 100 µM | HCC 2998 > 100 µM | OVCAR-5 > 100 µM | TK-10 42.6 µM | LXFL 529 63.4 µM | HOP-62 > 100 µM | SNB-19 > 100 µM | UACC-62 68.4 µM | OVCAR-3 75.9 µM | HL-60 36.7 µM | A549 83.8 µM | OVCAR-8 > 100 µM

CN(C)/C(F)=P\C(F)(F)F (centres undefined)
inactive: KM-20L2 > 100 µM | NCI-H460 > 100 µM | SF-295 > 100 µM | SW-620 > 100 µM | NCI-H23 > 100 µM | HCC 2998 > 100 µM | OVCAR-5 > 100 µM | TK-10 > 100 µM | LXFL 529 > 100 µM | HOP-62 > 100 µM | SNB-19 > 100 µM | SF-268 > 100 µM | UACC-62 > 100 µM | HL-60 > 100 µM | A549 > 100 µM | OVCAR-8 > 100 µM

CC(Oc1ccc2cc(C(=O)c3ccccc3)c(=O)oc2c1)C(=O)O (centres undefined)
inactive: KM-20L2 > 100 µM | NCI-H460 > 100 µM | SF-295 > 100 µM | SW-620 > 100 µM | NCI-H23 > 100 µM | HCC 2998 > 100 µM | TK-10 > 100 µM | LXFL 529 > 100 µM | HOP-62 > 100 µM | SNB-19 > 100 µM | SF-268 > 100 µM | UACC-62 > 100 µM | OVCAR-3 > 100 µM | HL-60 > 100 µM | A549 > 100 µM | OVCAR-8 > 100 µM
